Some test systems named below: CCRF-CEM leukemia; HOP-62 NSCLC; K-562 leukemia; KM12 colon; MCF7 breast; RXF 393 renal; SF-539 CNS; SW-620 colon; MALME-3M melanoma; SR leukemia.
What all share (assay): NCI anticancer screen, dose series, 48 h

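Cultured in 96-well plates, cells were exposed to test compound for 48 hours across five concentrations. At the TGI there is no net growth.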

Regarding `CC(=S)N=Cc1c(O)cc(C)oc1=O`, the TGI in the assay with CCRF-CEM leukemia, with HOP-62 NSCLC, in the assay with K-562 leukemia, with KM12 colon, in the assay on MCF7 breast and with RXF 393 renal was more than 100 µM throughout. The TGI in the assay on SF-539 CNS and with SW-620 colon was more than 100 µM in each case.

As for `O=C(O)C(CS)N=c1c2ccccc2n(O)c2ccccc12` (stereo unspecified), the TGI in the assay with CCRF-CEM leukemia, in the assay with HOP-62 NSCLC, in the assay with K-562 leukemia, in the assay with KM12 colon, with MALME-3M melanoma and in the assay on SW-620 colon was more than 100 µM in each case.

Turning to `CC1(C(=O)O)CCCC1C(=O)O` (stereo unspecified), the TGI with CCRF-CEM leukemia, with HOP-62 NSCLC, in the assay with K-562 leukemia, with KM12 colon, in the assay with MALME-3M melanoma and with RXF 393 renal was more than 100 µM throughout. The compound also gave a TGI in the assay on SW-620 colon of more than 100 µM.

In the case of `COC1(OC)CCCCC2c3cccc(OC(C)=O)c3C21OC(C)=O` (stereo unspecified), the TGI in the assay on CCRF-CEM leukemia, with HOP-62 NSCLC, in the assay on K-562 leukemia, in the assay with KM12 colon, with MALME-3M melanoma and with SF-539 CNS was more than 100 µM in each case. Further, the TGI in the assay on SR leukemia and in the assay with SW-620 colon was more than 100 µM throughout.

On to `COC(=O)C1CC2(c3ccccc3)C(=O)c3ccccc3N2O1` (stereo unspecified), for which the TGI with CCRF-CEM leukemia, with HOP-62 NSCLC, in the assay with K-562 leukemia, in the assay with KM12 colon, with MALME-3M melanoma and in the assay with SF-539 CNS was more than 100 µM throughout. Besides, the TGI in the assay on SR leukemia is 65.3 µM; with SW-620 colon it was more than 100 µM.

For the compound `COC(=O)/C=C/c1cc(OC)c(OC)c(OC)c1`, the TGI in the assay with CCRF-CEM leukemia, with HOP-62 NSCLC, with KM12 colon, in the assay on MALME-3M melanoma, in the assay with RXF 393 renal and in the assay with SF-539 CNS was more than 100 µM in each case. Moreover, the TGI in the assay on SR leukemia and in the assay with SW-620 colon was more than 100 µM throughout.

`CCC(C(=O)c1ccc(OC)c(OC)c1)N(C(=O)C(F)(F)F)C(C)c1ccccc1` (stereo unspecified): the TGI in the assay on CCRF-CEM leukemia, in the assay on HOP-62 NSCLC, in the assay on K-562 leukemia, in the assay on MALME-3M melanoma, in the assay on MCF7 breast and in the assay on SR leukemia was more than 100 µM throughout. This compound showed a TGI in the assay on SW-620 colon of more than 100 µM.

Take `Nc1ccc2[nH]c(-c3cccc(Cl)c3)cc(=O)c2c1`: the TGI is more than 100 µM with CCRF-CEM leukemia; more than 100 µM in the assay on HOP-62 NSCLC; more than 100 µM in the assay on KM12 colon; more than 100 µM in the assay with MALME-3M melanoma; more than 100 µM with MCF7 breast; 5.15 µM with SF-539 CNS. This compound showed a TGI with SW-620 colon of more than 100 µM.

With `C=CCOCCCCC(C(C)=O)C(=O)OC` (stereo unspecified), the TGI in the assay on CCRF-CEM leukemia, in the assay on K-562 leukemia, in the assay with KM12 colon, with MALME-3M melanoma, in the assay with RXF 393 renal and in the assay on SF-539 CNS was more than 100 µM in each case. Besides, the TGI in the assay on SR leukemia and in the assay with SW-620 colon was more than 100 µM in each case.

Turning to `O=C(CC1=NCCN1)c1ccccc1`, the TGI in the assay on CCRF-CEM leukemia is more than 511 µM; in the assay on HOP-62 NSCLC it was more than 750 µM; in the assay with K-562 leukemia, more than 750 µM; with KM12 colon it was more than 750 µM; in the assay on MALME-3M melanoma it was more than 750 µM; with MCF7 breast it was more than 750 µM. In addition, the TGI with RXF 393 renal, with SF-539 CNS and in the assay on SW-620 colon was more than 750 µM throughout.

On to `O=c1[nH]nc(-c2ccccc2)c2[nH]c(-c3ccccc3)cc12`, for which the TGI in the assay on CCRF-CEM leukemia, with HOP-62 NSCLC, in the assay with K-562 leukemia, in the assay on KM12 colon, in the assay on MALME-3M melanoma and in the assay on RXF 393 renal was more than 100 µM in each case. For the same compound, the TGI with SR leukemia and in the assay with SW-620 colon was more than 100 µM each time.

Turning to `O=C(N/N=C/c1cc(Br)cc(Br)c1[O-])c1ccccc1O.O=C(N/N=C/c1cc(Br)cc(Br)c1[O-])c1ccccc1O.[Fe+2]`, the TGI is 24.9 µM in the assay with CCRF-CEM leukemia; 8.53 µM with HOP-62 NSCLC; 23.9 µM in the assay with KM12 colon; 37.5 µM with MALME-3M melanoma; 20.6 µM in the assay with RXF 393 renal; 14.1 µM in the assay with SF-539 CNS. In addition, in the assay with SW-620 colon, the TGI was determined as 19.7 µM.

For `C=c1c(OC)c(OC)c(O)c2c1=c1cc([N+](=O)[O-])cc(OC)c1=N2`, the TGI with CCRF-CEM leukemia, in the assay with HOP-62 NSCLC, in the assay with K-562 leukemia, with KM12 colon, in the assay on MALME-3M melanoma and in the assay with MCF7 breast was more than 100 µM throughout. The TGI in the assay with RXF 393 renal, with SF-539 CNS and in the assay on SW-620 colon was more than 100 µM each time.

Turning to `COC(=O)Cc1c([C@H]2[C@H](CC(=O)OC)c3ccccc3N2C(C)=O)[nH]c2ccccc12`, the TGI in the assay on CCRF-CEM leukemia, with HOP-62 NSCLC, in the assay with K-562 leukemia, with KM12 colon, in the assay on MALME-3M melanoma and in the assay with RXF 393 renal was more than 100 µM each time. Also, the TGI in the assay on SF-539 CNS and in the assay on SW-620 colon was more than 100 µM each time.

Regarding `O=C(O)C(CO)NC(=O)n1c2ccccc2c2ccccc21` (stereo unspecified), the TGI in the assay with CCRF-CEM leukemia, in the assay on HOP-62 NSCLC, in the assay with K-562 leukemia, in the assay with KM12 colon, with MALME-3M melanoma and in the assay with RXF 393 renal was more than 100 µM each time. In addition, the TGI in the assay on SF-539 CNS, in the assay on SR leukemia and with SW-620 colon was more than 100 µM each time.

Turning to `OC1(c2ccc(Cl)cc2)c2ccc3ccccc3c2C2=N[C@H]3CCCC[C@@H]3N21` (stereo partly specified), the TGI in the assay with CCRF-CEM leukemia is 79.9 µM; in the assay on HOP-62 NSCLC, 11.5 µM; with K-562 leukemia it was more than 100 µM; with KM12 colon it was more than 100 µM; with MALME-3M melanoma it was 0.93 µM; in the assay with MCF7 breast, more than 100 µM. Further, the TGI in the assay on RXF 393 renal was 20.8 µM; in the assay on SF-539 CNS, 43.7 µM; with SW-620 colon, more than 100 µM.

These data come from PubChem BioAssay (NCI).
